Where two headings read alike, the source gives them in different places.
Columns and labels:
[1] = target: human Bruton's Tyrosine Kinase (Btk) (Homo sapiens (Human), UniProt Q06187); assay: Recombinant Human Bruton's Tyrosine Kinase (Btk) Inhibition Assay (HTRF KinEASE-TK); format: biochemical; settings: 20 ng/ml rhBtk, 77 μM ATP (KM), 1 μM TK-Biotin substrate, 90 min; read-out: hBTK IC50
[2] = system: mouse splenocytes; assay: Inhibition of B Cell Activation as Measured by CD69 Expression in Mouse Splenocytes; format: cell-based; settings: Splenocyte
How it was run: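 Total mouse splenocytes pre-incubated with compounds (half-log dilutions; DMSO 200× stocks from 2 mM) 30 min at 37 °C, then stimulated with 3 ug/mL anti-mouse IgM for 18-20 hrs. CD69+ cells within CD19+ B cells quantified by flow cytometry; IC50 from variable-slope sigmoid dose-response fit.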

[3] = C57/BL6 splenocytes, 3 ug/mL goat anti-mouse IgM, 18-20 hrs, CD69+ve cells within CD19, read-out: Mouse spleenocyte IC50

human Bruton's Tyrosine Kinase (Btk), sequence (Q06187 whole entry): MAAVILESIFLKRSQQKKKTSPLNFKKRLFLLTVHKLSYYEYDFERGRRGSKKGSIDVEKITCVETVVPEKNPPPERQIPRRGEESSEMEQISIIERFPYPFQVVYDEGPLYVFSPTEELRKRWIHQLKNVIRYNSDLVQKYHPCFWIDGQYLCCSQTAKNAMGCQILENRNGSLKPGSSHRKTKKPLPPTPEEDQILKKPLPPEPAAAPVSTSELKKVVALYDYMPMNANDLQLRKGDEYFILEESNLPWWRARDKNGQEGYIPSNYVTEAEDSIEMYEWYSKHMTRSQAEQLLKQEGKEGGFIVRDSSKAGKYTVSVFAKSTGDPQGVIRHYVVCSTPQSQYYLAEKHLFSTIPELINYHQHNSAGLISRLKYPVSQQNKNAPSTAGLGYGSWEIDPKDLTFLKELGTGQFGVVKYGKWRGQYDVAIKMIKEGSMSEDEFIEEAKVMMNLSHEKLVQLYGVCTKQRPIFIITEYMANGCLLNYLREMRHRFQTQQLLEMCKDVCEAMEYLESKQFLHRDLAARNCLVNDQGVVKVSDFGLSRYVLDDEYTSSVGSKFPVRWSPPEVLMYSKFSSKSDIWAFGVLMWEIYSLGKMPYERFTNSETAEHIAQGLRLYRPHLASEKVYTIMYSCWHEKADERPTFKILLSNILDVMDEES

SMILES	IC50 [1] [µM]	IC50 ([2]; Mus musculus, read-out: Mouse spleenocyte IC50 (nM)) [nM]	IC50 [2, 3] [nM]
O=C(CN1CCC1)N1CC=C(c2cc3c(-c4cccc(N5CCOc6cc(C7CC7)cc(F)c6C5=O)c4CO)ccnc3[nH]2)CC1 [Example P-28, 4-[3-[2-[1-[2-(azetidin-1-yl)acetyl]-3,6-dihydro-2H-pyridin-4-yl]-1H-pyrrolo[2,3-b]pyridin-4-yl]-2-(hydroxymethyl)phenyl]-8-cyclopropyl-6-fluoro-2,3-dihydro-1,4-benzoxazepin-5-one]	0.0031	63	
CC(O)C(=O)N1CC=C(c2cc3c(-c4cccc(N5CCOc6cc(C7CC7)cc(F)c6C5=O)c4CO)ccnc3[nH]2)CC1 (stereo not shown) [Example P-29, 8-cyclopropyl-6-fluoro-4-[2-(hydroxymethyl)-3-[2-[1-(2-hydroxypropanoyl)-3,6-dihydro-2H-pyridin-4-yl]-1H-pyrrolo[2,3-b]pyridin-4-yl]phenyl]-2,3-dihydro-1,4-benzoxazepin-5-one]	0.0013		8
O=C(CO)N1CC=C(c2cc3c(-c4cccc(N5CCOc6cc(C7CC7)cc(F)c6C5=O)c4CO)ccnc3[nH]2)CC1 [Example P-30, 8-cyclopropyl-6-fluoro-4-[3-[2-[1-(2-hydroxyacetyl)-3,6-dihydro-2H-pyridin-4-yl]-1H-pyrrolo[2,3-b]pyridin-4-yl]-2-(hydroxymethyl)phenyl]-2,3-dihydro-1,4-benzoxazepin-5-one]	0.001		11
NC(=O)CN1CC=C(c2cc3c(-c4cccc(N5CCOc6cc(C7CC7)cc(F)c6C5=O)c4CO)ccnc3[nH]2)CC1 [Example P-31, 2-[4-[4-[3-(8-cyclopropyl-6-fluoro-5-oxo-2,3-dihydro-1,4-benzoxazepin-4-yl)-2-(hydroxymethyl)phenyl]-1H-pyrrolo[2,3-b]pyridin-2-yl]-3,6-dihydro-2H-pyridin-1-yl]acetamide]	0.0053		52
CC(=O)N1CC(N2CC=C(c3cc4c(-c5cccc(N6CCOc7cc(C8CC8)cc(F)c7C6=O)c5CO)ccnc4[nH]3)CC2)C1 [Example R-1, 4-[3-[2-[1-(1-acetylazetidin-3-yl)-3,6-dihydro-2H-pyridin-4-yl]-1H-pyrrolo[2,3-b]pyridin-4-yl]-2-(hydroxymethyl)phenyl]-8-cyclopropyl-6-fluoro-2,3-dihydro-1,4-benzoxazepin-5-one]	0.0022		75
CCN1CC(N2CC=C(c3cc4c(-c5cccc(N6CCOc7cc(C8CC8)cc(F)c7C6=O)c5CO)ccnc4[nH]3)CC2)C1 [Example R-2, 8-cyclopropyl-4-[3-[2-[1-(1-ethylazetidin-3-yl)-3,6-dihydro-2H-pyridin-4-yl]-1H-pyrrolo[2,3-b]pyridin-4-yl]-2-(hydroxymethyl)phenyl]-6-fluoro-2,3-dihydro-1,4-benzoxazepin-5-one]	0.0015		21
CCN1CC=C(c2cc3c(-c4cccc(N5CCOc6cc(C7CC7)cc(F)c6C5=O)c4CO)ccnc3[nH]2)CC1 [Example R-3, 8-cyclopropyl-4-[3-[2-(1-ethyl-3,6-dihydro-2H-pyridin-4-yl)-1H-pyrrolo[2,3-b]pyridin-4-yl]-2-(hydroxymethyl)phenyl]-6-fluoro-2,3-dihydro-1,4-benzoxazepin-5-one]	0.022		85
CN1CC(N2CC=C(c3cc4c(-c5cccc(N6CCOc7cc(C8CC8)cc(F)c7C6=O)c5CO)ccnc4[nH]3)CC2)C1 [Example R-4, 8-cyclopropyl-6-fluoro-4-[2-(hydroxymethyl)-3-[2-[1-(1-methylazetidin-3-yl)-3,6-dihydro-2H-pyridin-4-yl]-1H-pyrrolo[2,3-b]pyridin-4-yl]phenyl]-2,3-dihydro-1,4-benzoxazepin-5-one]	0.0016		70
CCN1CC(C(=O)N2CC=C(c3cc4c(-c5cccc(N6CCOc7cc(C8CC8)cc(F)c7C6=O)c5CO)ccnc4[nH]3)CC2)C1 [Example R-5, 8-cyclopropyl-4-[3-[2-[1-(1-ethylazetidine-3-carbonyl)-3,6-dihydro-2H-pyridin-4-yl]-1H-pyrrolo[2,3-b]pyridin-4-yl]-2-(hydroxymethyl)phenyl]-6-fluoro-2,3-dihydro-1,4-benzoxazepin-5-one]	0.00075		51
C=CC(=O)N1CCCC(n2cc(-c3cc4c(-c5cccc(N6CCOc7cc(C8CC8)ccc7C6=O)c5CO)ncnc4[nH]3)cn2)C1 (stereo not shown) [Example S-1, 8-cyclopropyl-4-[2-(hydroxymethyl)-3-[6-[1-(1-prop-2-enoyl-3-piperidyl)pyrazol-4-yl]-7H-pyrrolo[2,3-d]pyrimidin-4-yl]phenyl]-2,3-dihydro-1,4-benzoxazepin-5-one]	0.004		130
N#CCN1CC(n2cc(-c3cc4c(-c5cccc(N6CCOc7cc(C8CC8)ccc7C6=O)c5CO)ccnc4[nH]3)cn2)C1 [Example S-2, 2-[3-[4-[4-[3-(8-cyclopropyl-5-oxo-2,3-dihydro-1,4-benzoxazepin-4-yl)-2-(hydroxymethyl)phenyl]-1H-pyrrolo[2,3-b]pyridin-2-yl]pyrazol-1-yl]azetidin-1-yl]acetonitrile]	0.012		126
